# Experimental data from PMC5354938, “Spleen cells from young but not old immunized mice eradicate large established cancers” (Clinical cancer research : an official journal of the …, 2012).
# Where two headings read alike, the source gives them in different places. Ends that are not written are not given here.
# Legend:
# H2-D^b = H2-D^b (Mus musculus, UniProt P01899); conditions: MHC D^b; geometric mean of 5 or more experiments; Published in ref [19]; read-out: Affinity of peptide for MHC (IC50); cited from earlier work
# H2-K^b [1] = target: T1, H2-K^b (Mus musculus, UniProt P01901); assay: MHC peptide binding assay, purified H2-K^b
# T1 construct: made in house
# T1 sequence (P01901 22-369): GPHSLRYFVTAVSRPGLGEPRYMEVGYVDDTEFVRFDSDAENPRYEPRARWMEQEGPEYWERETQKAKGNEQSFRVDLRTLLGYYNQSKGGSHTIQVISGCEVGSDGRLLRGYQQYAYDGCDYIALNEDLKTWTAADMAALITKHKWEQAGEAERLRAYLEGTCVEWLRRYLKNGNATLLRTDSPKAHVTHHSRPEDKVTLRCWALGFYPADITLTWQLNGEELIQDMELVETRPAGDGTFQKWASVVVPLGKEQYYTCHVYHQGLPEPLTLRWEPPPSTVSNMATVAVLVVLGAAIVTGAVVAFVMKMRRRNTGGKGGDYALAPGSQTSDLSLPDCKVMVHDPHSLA
# T1 sequence (P01887 21-119 partner): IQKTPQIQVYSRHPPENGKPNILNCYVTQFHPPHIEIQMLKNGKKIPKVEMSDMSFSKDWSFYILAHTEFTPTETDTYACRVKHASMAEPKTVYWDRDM
# Description: MHC purification, and quantitative assays to measure the binding affinity of peptides to purified H2-K^b, H2-D^b, and HLA-A*0201 molecules were performed as previously described ([49], [50]).
# H2-K^b [2] = target: T1, H2-K^b; conditions: MHC K^b; geometric mean of 5 or more experiments; Published in ref [19]; read-out: Affinity of peptide for MHC (IC50); cited from earlier work
# [3] = Affinity of peptide for MHC (IC50), MHC K^b, purified H2-K^b, geometric mean of 5 or more experiments
# H2-D^b, sequence (P01899 whole entry, looked up): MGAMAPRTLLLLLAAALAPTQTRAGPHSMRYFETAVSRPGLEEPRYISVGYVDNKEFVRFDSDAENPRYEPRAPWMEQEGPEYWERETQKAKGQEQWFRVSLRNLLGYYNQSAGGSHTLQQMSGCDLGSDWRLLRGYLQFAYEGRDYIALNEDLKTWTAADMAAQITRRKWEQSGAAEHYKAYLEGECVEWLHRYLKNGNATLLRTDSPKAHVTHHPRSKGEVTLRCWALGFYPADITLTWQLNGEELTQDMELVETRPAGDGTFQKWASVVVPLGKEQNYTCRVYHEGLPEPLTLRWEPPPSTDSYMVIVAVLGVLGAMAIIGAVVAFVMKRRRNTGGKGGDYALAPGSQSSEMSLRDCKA
sequence,measurement,setting,value
IGMFNLTFI [A23R (297-305)],IC50,H2-D^b,0.34 nM
"SNFVFAGI [mp68 (547-554, 5F)]",IC50,H2-K^b [1]; [3],0.48 nM
same,IC50,"H2-K^b [1]; binding to MHC Class I molecules with very high affinity (bound), discussion statement, very high affinity",< 1 nM
SNFVSAGI [p68 (547-554)],IC50,H2-K^b [1]; [3],22 nM
YTLIYRQL [A6L (265-272)],IC50,H2-K^b [2],6 nM
